The source of these data is patent publication US20190125735A1, “INHIBITION OF P38 MAPK FOR THE TREATMENT OF CANCER” (Board of Regents, The University of Texas System, priority 2015, published 2019).

Structures are written as SMILES. “Also recorded” adds a separate entry of the source.

For experiment [1], the system named is mesenchymal cells. The experiment can be described thus: Scratch/wound-healing assay of mesenchymal mammary cells. It is filed as cell-based, human. An excerpt: The effects of p38 inhibition on invasive potential, which strongly correlates with the formation of invadopodia, was investigated. These specialized actin-based cell membrane protrusions secrete matrix metalloproteinases, enabling degradation of the nearby extracellular matrix (Eckert et al., 2011). The formation of invadopodia was quantified by assessing the ability of cells to degrade FITC-conjugated gelatin.
Quantification of invadopodia (Eckert et al., 2011), scratch/wound-healing assays (Sarkar et al., 2015) fluorescence-activated cell sorting (FACS), and sphere-formation assays (Mani et al., 2008) were conducted as described previously.

In experiment [2] the test system is MCF10A cells. Description: TGFβ1-induced EMT in MCF10A cells, immunoblotting. It is filed as cell-based, human. As to conditions: TGFβ1-treated MCF10A, concomitant SB203580, 3 days. The protocol: To ascertain whether inhibiting p38 impedes the initiation of EMT, two dynamic models of EMT induction were utilized. First, MCF10A immortalized human mammary epithelial cells were treated with TGFβ1 which elicits EMT. […] Second, an inducible EMT system was used wherein a fusion protein, comprising the EMT-inducing transcription factors Snail or Twist and the estrogen-binding domain of the estrogen receptor (ER), is stably expressed in epithelial HMLE cells (HMLE-Snail-ER, HMLE-Twist-ER). Addition of the ER-ligand tamoxifen (4-OHT) promotes nuclear translocation of the Snail-ER and Twist-ER proteins and elicits EMT. […] Similarly, p38 shRNA abolished the capacity of HMLE-Twist-ER cells to undergo EMT (FIG. 4E, compare lanes 4 to 8) and to form spheres (FIG. 16F) in response to 4-OHT treatment.
Immortalized human mammary epithelial (HMLE) cells expressing empty vector (pWZL), Snail, Twist, Goosecoid (GSC), or an activated form of TGFβ1, V12H-Ras-transformed HMLE (HMLER) and HMLER-FOXC2 cells were maintained as previously described (Elenbaas et al., 2001) For 4-hydroxy-tamoxifen (4-OHT) treatment, HMLE-Snail-ER or HMLE-Twist-ER cells were exposed to 20 nM 4-OHT for the indicated number of days. MCF7, MDA-MB-231 and SUM159 human breast cancer cells and the 4T1 mouse mammary carcinoma cells were cultured as described. […]
On the technique in general: A western blot detects proteins with antibodies after separation by electrophoresis.

The test system of experiment [3] is HMLER cells. The experiment can be described thus: Scratch/wound-healing assay, HMLER cells expressing FOXC2 variants. It is filed as cell-based, human. The protocol: For this, phosphomimetic FOXC2(S367E) and non-phosphorylatable FOXC2(S367A) mutants were generated and their ability to bestow mesenchymal and stem-cell traits relative to wild-type FOXC2 (referred to as FOXC2) was evaluated.

In experiment [4] the test system is DU145 cells. Description: Tumorsphere assay, DU145 cells. It is filed as cell-based, human. The following applies: DU145, SB203580 5 μM, 7 days. How it is done: Cell lines: Authenticated LNCaP, DU145, and PC3 cells were procured from ATCC and cultured in RPMI with 10% fetal bovine serum (FBS) with penicillin/streptomycin. Cells overexpressing EMT transcription factors and shRNA were also cultured in the same media. HEK293T cells were cultured in DMEM with 10% FBS and penicillin/streptomycin. All cell lines used for this study were recently confirmed negative for mycoplasma contamination.
Immunoblotting, Immunofluorescence, RTPCR, wound healing- and tumorsphere assays were performed as previously described (Sarkar et al., 2015). Cell viability (MTS) was assessed using the CellTiter96 Aqueous One-Solution Cell Proliferation Assay kit (Promega).

For experiment [5], the system named is FOXC2. The experiment can be described thus: FOXC2 transcript levels by qRT-PCR. It is filed as cell-based, human. As to conditions: treated vs vehicle. The protocol: qRT-PCR was performed using SYBR Green (Applied Biosystems, Waltham, Mass., USA) for mRNAs and Taqman (Applied Biosystems) for microRNAs as described previously (Hollier et al., 2013).
For orientation: Quantitative PCR measures a nucleic acid by following its amplification.

Experiment [6] concerns BCR-ABL+ mouse ALL cells seeded on MSCs (OP9 cells). The experiment can be described thus: Clinical compound library screen, imatinib-pretreated MSC / BCR-ABL+ ALL cell co-culture. It is filed as cell-based. The protocol: The effectiveness of the compounds was determined in preventing cluster formation by microscopy and the toxicity of the compounds by bioluminescence imaging of co-cultured MSCs and leukemic cells.
The clinical compounds library was purchased from the John S. Dunn Gulf Coast Consortium for Chemical Genomics (Houston, Tex.). […] Then, luciferase-labeled BCR-ABL+ mouse ALL cells were seeded on to the MSCs. Treatment was continued for 1 day, and the samples were evaluated via phase-contrast microscopy for the formation of leukemic cell clusters underneath the pretreated MSCs. To determine the compounds' toxicity in MSCs or leukemic cells, we examined the MSC/ALL cell co-cultures via microscopy and/or bioluminescence imaging.
Phase-contrast images of co-cultured MSCs and ALL cells were obtained using an Axio Observer.Z1 microscope, an AxioCam MR camera, and AxioVision software (Zeiss, Oberkochen, Germany). For screening, a cluster was defined as a group of more than five leukemic cells under the MSCs. The total number of leukemic cell clusters was the average number of clusters from three different fields (10× objective). For post-screening experiments, a cluster was defined as a group of more than 10 leukemic cells under the MSCs. The total number of leukemic cell clusters was the average number of clusters from 10 different fields (10× objective).

As to `C[S+]([O-])c1ccc(-c2nc(-c3ccc(F)cc3)c(-c3ccncc3)[nH]2)cc1` (centres unmarked) [SB203580, 4-(4-Fluorophenyl)-2-(4-methylsulfinylphenyl)-5-(4-pyridyl) 1H-imidazole], the Migratory capacity entry in experiment [1] is “markedly reduced the migratory capacity of mesenchymal cells”. Besides, the “FOXC2, mesenchymal and epithelial markers” value in experiment [2] is “suppresses the upregulation of FOXC2 and mesenchymal markers (fibronectin, vimentin) and prevents downregulation of the epithelial marker E-cadherin”. In addition, the Decrease in wound-closure in experiment [3] (HMLER-FOXC2(S367E) cells) is listed as less than 30%. Further, the “Inhibition of migration (wound closure)” value in experiment [3] (HMLER-FOXC2 cells) and in experiment [3] (HMLER-vector cells) was more than 70% in each case. Also, in experiment [4], the Tumorsphere formation result was “significant reduction”. Also, the FOXC2 transcript levels entry in experiment [5] was “neither SB203580 nor p38 shRNA had a discernible effect on FOXC2 transcript levels”. In addition, the “Imatinib-induced leukemic cell cluster formation” value in experiment [6] is listed as “directly prevented imatinib-induced leukemic cell cluster formation; also recorded: potently inhibited the formation of imatinib-induced leukemic cell clusters”.
